Experimental findings from patent US20140094413A1, “HEPATOCYTE GROWTH FACTOR (HGF) MIMICS AS THERAPEUTIC AGENTS” (WASHINGTON STATE UNIVERSITY, priority 2012, published 2014) are described below.

Values joined by “and” are separate entries in the source; they are usually repeats but may differ in a detail not shown here. Identical values can stand only once. “Also recorded” adds a separate entry of the source. Where a SMILES comes first, the peptide text is derived from it. [ ]: non-standard residue; d: D form. The star is where a group is joined. Nle = CCCC[C@H](N)C(=O)O; Hexanoyl = CCCCCC(=O)*; Ahx = NCCCCCC(=O)O

In one data set the test system is aged rats. The data set is described as follows: Morris water maze, aged rat model. Type of data set: in vivo. The note with it: aged rats of mixed sex; oral Dihexa 2 mg/kg/day, 8 days. The procedure: Swim speed was determined from these values.
For data set [1], the system named is hippocampal neurons. The data set is described as follows: Immunocytochemistry: correlation of spines with synaptic markers. The note with it: 10^−12 M, 5 days. The class given is cell-based, rat. The procedure: (§1) Transfected neurons were treated, fixed and stained. Briefly, cells were permeablized with 0.1% Triton X-100 detergent (Bio-Rad; Hercules, Calif.) for 10 minutes. An 8% bovine serum albumin (Intergen Company; Burlington, Mass.) in PBS was used to prevent non-specific binding for one hour at R.T.; Primary antibody incubations were at a 1:2500 dilution (see below) in 1% BSA in PBS at 4° C. overnight. Secondary antibody, 1:3000 Alexafluor 488 goat-anti-mouse (Invitrogen: Carlsbad, Calif.) was applied for two hours at room temperature. Coverslips were mounted with ProLong Gold anti-fade reagent (Invitrogen; Carlsbad, Calif.) and all washes were done with PBS. Imaging and analysis were performed as described above. For presynaptic excitatory transmission the VGLUT1 (Synaptic Systems, Goettingen, Germany) marker (Balschun, Moechars et al.) was employed and for general presynaptic transmission synapsin1 (Synaptic Systems, Goettingen, Germany) (Ferreira and Rapoport 2002) was applied. A postsynaptic function was established by PSD-95 (Milipore, Billerica, Mass.) (El-Husseini, Schnell et al. 2000). In each instance the total number of spines was counted for the treatment groups, control, Nle1-AngIV and Dihexa, to ensure an active phenotype. The total number of actin enriched spines adjacent to VGLUT1 or Synapsin were counted and converted to a percentage as the percent correlation of treatment-induced spines to presynaptic markers is a strong indicator of ability to transmit excitatory signals.
as §1, with “fixed and stained as previously described in Chapter two. Briefly, cells” for “fixed and stained. Briefly, cells”, “enriched spines (red) adjacent to” for “enriched spines adjacent to”

Data set [2] is described as follows: Metabolic stability in rat serum. Type of data set: in vitro ADME.
The next data set concerns c-Met. The data set is described as follows: Augmentation of HGF-dependent c-Met phosphorylation in HEK293 cells. The class given is cell-based, human. The note with it: HEK 293 cells treated with HGF+/−Dihexa. How it is done: augmentation of HGF-dependent c-Met phosphorylation in HEK293 cells, or 2) augmentation of HGF-dependent cell scattering in MDCK cells. All the compounds in Family one were tested using the c-Met phosphorylation assay. […]
Human embryonic kidney cells 293 (HEK293), Madin Darby canine kidney cells (MDCK), and B16F10 murine melanoma cells were grown in DMEM, 10% fetal bovine serum (FBS). Cells were grown to 90-100% confluency before use. For most but not all studies HEK and MDCK cells were serum starved for 24 hours prior to the initiation of drug treatment.
HEK293 cells were seeded in 6 well tissue culture plates and grown to 95% confluency in DMEM containing 10% FBS. The cells were serum deprived for 24 hours prior to the treatment to reduce the basal levels of phospho-Met. […] The lysate was clarified by centrifugation at 15,000 g for 15 minutes, protein concentrations were determined using the BCA total protein assay, and then appropriate volumes of the lysates were diluted with 2× reducing Laemmli buffer and heated for ten minutes at 95° C. […] Proteins were visualized using the Supersignal West Pico Chemiluminescent Substrate system (Pierce, Fenton, Mo.) and molecular weights determined by comparison to protein ladders (BenchMark, Invitrogen; and Kaleidoscope, BioRad). Images were digitized and analyzed using a UVP phosphoimager.

Data set [3] is described as follows: Dihexa plasma levels after IV infusion. The class given is in vivo, rat. The procedure:
FIG. 46. Dihexa plasma levels after intravascular (IV) infusion. Dihexa was administered to adult male Sprague Dawley rats at 10 mg/kg. Plasma sample were collected and analyzed by HPLC-MS. Plasma data were modeled by non-compartmental analysis using WinNonlin® software.

Data set [4] can be described thus: Phase I metabolism of Dihexa. Type of data set: in vitro ADME.
A short description of data set [5]: Toxicity observation during Dihexa studies. The class given is in vivo. The note with it: studies lasting as long as 96 days.
The subject of another data set is scopolamine treated rats. The data set is described as follows: Morris water maze, scopolamine amnesia model. The note with it: scopolamine ICV.
Data set [6] concerns hippocampal neurons. The data set is described as follows: Immunocytochemistry: correlation of spines with synaptic markers. The class given is cell-based, rat. The note with it: HGF 10 ng/ml.

Method for scopolamine treated rats: Male Sprague-Dawley rats (Taconic derived) weighing 390-450 g were maintained with free access to water and food (Harland Tekland F6 rodent diet, Madison, Wis.) except the night prior to surgery when food was removed. Each animal was anesthetized with Ketamine hydrochloride plus Xylazine (100 and 2 mg/kg im. respectively; Phoenix Scientific; St. Joseph, Mo., and Moby; Shawnee, Kans.). […] The guide cannula measured 2.5 cm in overall length and was prepared with a heat bulge placed 2.5 mm from its beveled tip, thus acting as a stop to control the depth of penetration. Once in position, the cannula was secured to the skull with two stainless-steel screws and dental cement. Post-operatively the animals were housed individually in an American Accreditation for Laboratory Animal Care-approved vivarium maintained at 22±1° C. on a 12-h alternating light/dark cycle initiated at 06:00 h. All animals were hand gentled for 5 min per day during the 5-6 days of post-surgical recovery. Histological verification of cannula placement was accomplished by the injection of 5 μl fast-green dye via the guide cannula following the completion of behavioral testing.
A black circular platform (diameter: 12 cm; height: 24 cm) was placed 30 cm from the wall and submerged 2 cm below the water surface. The maze was operationally sectioned into four equal quadrants designated NW, NE, SW, and SE. For each rat the location of the platform was randomly assigned to one of the quadrants and remained fixed throughout the duration of training. Entry points were at the quadrant corners (i.e. N, S, E, and W) and were pseudo-randomly assigned such that each trial began at a different entry point than the preceding trial. Three of the four testing room walls were covered with extra-maze spatial cues consisting of different shapes (circles, squares, triangles) and colors. The swimming path of the animals was recorded using a computerized video tracking system (Chromotrack; San Diego Instruments, CA). […] Swim speed was determined from these values.
Each member of the treatment groups in the scopolamine studies received an icy injection of scopolamine hydrobromide (70 nmol in 2 μl aCSF over a duration of 20 s) 30 min prior to testing followed by Dihexa 10 min prior to testing. Control groups received scopolamine or aCSF 20 min prior to testing followed by aCSF 10 min prior testing. […] The rats in the aged rat study on received Dihexa of aCSF (control group). Briefly, acquisition trials were conducted on 8 consecutive days with 5 trials/day. On the first day of training the animal was placed on the platform for 30 s prior to the first trial. Trials commenced with the placement of the rat facing the wall of the maze at one of the assigned entry points. […] Once the animal located the platform it was permitted a 30 s rest period on the platform. […] The next trial commenced immediately following the rest period.
Following day 8 of acquisition training, one additional trial was conducted during which the platform was removed (probe trial). […] Total time spent within the target quadrant where the platform had been located during acquisition and the number of crossings of that quadrant was recorded.

As for `CCCCCC(=O)N[C@@H](Cc1ccc(O)cc1)C(=O)N[C@H](C(=O)NCCCCCC(N)=O)[C@@H](C)CC` [Dihexa, N-hexanoic-Tyr-Ile-(6)-aminohexanoic amide] (Hexanoyl-Tyr-Ile-[Ahx]-NH2), the “Water maze performance of aged rats vs untreated controls” value with aged rats is listed as “preformed significantly better in the water maze than untreated rats; also recorded: performed significantly better than untreated controls; also recorded: significantly improved water maze performance”. Also, in the data set on hippocampal neurons [1], the “% Correlation PSD-95” value is 98.71%, the “% Correlation Synapsin” value was determined as 96.3%, the “% Correlation VGLUT1” value is on record as 94.4% and the “Number of spines/50 μm (PSD-95 experiment)” value was found to be 43 spines/50 μm. Moreover, in the data set on hippocampal neurons [1], the “Number of spines/50 μm (Synapsin experiment)” value was 37 spines/50 μm; the “Number of spines/50 μm (VGLUT1 experiment)” value is 44.2 spines/50 μm and 44 spines/50 μm. The “t1/2 in rat serum” value in data set [2] was found to be 0.229 days. Further, in the data set with c-Met, the “Effect on HGF activation (phosphorylation) of c-Met” value is on record as “dramatically augment the ability of HGF to activate c-Met; also recorded: work synergistically to activate c-Met; also recorded: enhances the activity of HGF shifting its concentration curve to the left”. Besides, in data set [3] (IV 10 mg/kg, adult male Sprague Dawley rats, non-compartmental analysis, 10 mg/kg), the “Elimination (circulating) half-life t1/2” value was > 12 days and 12.68 days. Besides, in data set [3] (urine), the Excretion result is “excreted intact in the urine”. Also, the “Phase I metabolism” value in [4] is “resistant to phase I metabolism; also recorded: undergoes little phase I metabolism”. In addition, the Overt toxicity entry in data set [5] is on record as “no overt toxicity”. Besides, the “Water maze latency to find the pedestal: reversal of scopolamine deficits” value (from here on “Water maze latency to find the pedestal”) in the data set on scopolamine treated rats (Dihexa ICV high dose (100 μmoles, 100 pmoles elsewhere in the source), 5 trials/day, 8 days) is “reversed scopolamine-dependent learning deficits; also recorded: completely overcome the scopolamine deficits”. Moreover, the “Water maze latency to find the pedestal” value in the data set with scopolamine treated rats (Dihexa ICV low dose 10 μmoles) is listed as “not 10 μmoles reversed scopolamine-dependent learning deficits”. In the data set with scopolamine treated rats (Dihexa IP 0.5 mg/kg (high dose)), the “Water maze latency to find the pedestal” value is reported as “completely reverse the deficit seen with scopolamine”. Also, the “Water maze latency to find the pedestal” value in the data set on scopolamine treated rats (Dihexa orally 2 mg/kg/day (high dose), 2 mg/kg/day) was “no different than controls; also recorded: completely overcome the scopolamine deficits; also recorded: completely reverse the deficit seen with scopolamine; also recorded: completely reverse the deficit produced by scopolamine”.

For `CCCC[C@H](N)C(=O)N[C@@H](Cc1ccc(O)cc1)C(=O)N[C@H](C(=O)N[C@@H](Cc1c[nH]cn1)C(=O)N1CCC[C@H]1C(=O)N[C@@H](Cc1ccccc1)C(=O)O)[C@@H](C)CC` [Nle1-AngIV, reference compound] (H-[Nle]YIHPF-OH; N-terminus and C-terminus assumed), in the data set on hippocampal neurons [1], the “% Correlation PSD-95” value is recorded as 97.38%, the “% Correlation Synapsin” value stood at 94.2%, the “% Correlation VGLUT1” value was 95.1% and the “Number of spines/50 μm (PSD-95 experiment)” value was determined as 36 spines/50 μm. Further, in the data set on hippocampal neurons [1], the “Number of spines/50 μm (Synapsin experiment)” value was 31 spines/50 μm; the “Number of spines/50 μm (VGLUT1 experiment)” value was 39.4 spines/50 μm and 39 spines/50 μm.

On to “HGF: Hepatocyte growth factor, recombinant, purchased from R&D Systems”, for which the “Percent correlation of spines to Synapsin” value in the data set with hippocampal neurons [6] is recorded as 98%. The “Mean number of spines per 50 μm dendrite length” value in the data set with hippocampal neurons [6] (5 days) is listed as 33 spines per 50 μm dendrite length.
